Source: patent US8124831B2, “Transgenic mice carrying functional single nucleotide polymorphisms in brain-specific tryptophan hydroxylase” (Duke University, priority 2006, dated 2012)

System: R439H Tph2 knock-in mice
Assay: Tail suspension test after drug administration
Assay type: in vivo, mouse
Conditions: HO Tph2 knock-in mice; 30 min following administration; fluoxetine 5 mg/kg, TDZD 10 mg/kg (i.p.); vs vehicle (FIG. 7)
Procedure: Tail suspension test: Mice were tested in a tail suspension apparatus (Med-Associates, St. Albans, Vt.) as described (Crowley et al., 2004, Pharmacol. Biochem. Behav. 78:269-274). All mice were weighed and tail-marked 24 hrs before testing. Animals were brought into the testing room 4 hrs before injections. Pilot studies were used to determine the optimal automated threshold settings for immobility by comparing scores rated manually with scores tabulated simultaneously by the apparatus. Behavior was scored as time spent in immobility (sec) for the total period of the test.
Administration of anti-depressants or glycogen synthase kinase 3 inhibitors alleviates behavioral differences. Fluoxetine (Tocris Cookson Inc., Ellisville, Mo.) was dissolved in distilled water. Thiadiazolidinone (TDZD) (Calbiochem, Cambridge, Mass.) was injected (i.p.) following suspension in a minimal amount of Tween and diluted to volume with distilled water as previously described (Beaulieu et al., 2004, Proc. Natl Acad. Sci. USA 101:5099-5104). Corresponding vehicle solutions were injected in control animals. Mice were treated with vehicle or drug 30 min before testing. Behavioral testing was performed as described above.

SMILES	immobility times in the tail suspension test
Cn1sc(=O)n(Cc2ccccc2)c1=O [TDZD, thiadiazolidinone]	comparable reduction of immobility times
CNCCC(Oc1ccc(C(F)(F)F)cc1)c1ccccc1 (centres unmarked) [fluoxetine]	comparable reduction of immobility times
